Source: PMC11249646, “Small-Molecule Disruptors of the Interaction between Calcium- and Integrin-Binding Protein 1 and Integrin αIIbβ3 as Novel Antiplatelet Agents” (ACS Pharmacology & Translational Science, 2024)

What was measured:
[1] = molecular target: T1, GST-CIB1 : F-scrambled peptide (Homo sapiens, UniProt Q99828); assay: FP scrambled-peptide counter screen, 1536-well format; type: binding; conditions: scrambled-peptide counterscreen
T1 construct: made in house; host or cells: BL-21 plus RIL cells (E. coli)
T1 sequence (Q99828 1-191): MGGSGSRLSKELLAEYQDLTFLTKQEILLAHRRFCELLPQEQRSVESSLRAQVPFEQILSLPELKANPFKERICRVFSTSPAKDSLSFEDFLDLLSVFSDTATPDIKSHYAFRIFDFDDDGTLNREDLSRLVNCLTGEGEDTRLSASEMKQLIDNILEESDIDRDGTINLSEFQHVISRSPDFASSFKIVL

[2] = molecular target: T2, GST-CIB1:F-αIIb interaction (Homo sapiens, UniProt Q99828); assay: Gel-based (in-gel) binding assay; conditions: 1 μM GST-CIB1, 400 nM F-αIIb; 60 μM, 1:2, 4-points
T2 construct: made in house; host or cells: BL-21 plus RIL cells (E. coli)
T2 sequence (Q99828 1-191): T1 sequence (Q99828 1-191)

[3] = molecular target: T3, CIB1-(His)6 : F-αIIb peptide (Homo sapiens, UniProt Q99828); assay: MST competitive binding study; conditions: 200 nM F-αIIb, 4 μM CIB1-(His)6; n = 3/concentration
T3 construct: made in house
T3 sequence (Q99828 1-191): T1 sequence (Q99828 1-191)
Experimental: We sought to resolve this discrepancy by performing a competition binding study similar to the conditions of the FP HTS assay by utilizing the F-αIIb probe.
Figure 4 MST competitive binding assay. We selected 200 nM F-αIIb and a CIB1 concentration of 4 μM and tested both compounds. […] Panel (B) highlights the concentration range in which we observe different activities between the two compounds.
The binding affinity of the compounds to the CIB1-(His)6 protein in the presence of αIIb peptide was evaluated using FITC-labeled αIIb as well. Following manufacturer’s recommendation,[66] we first determined a minimum concentration of F-αIIb by performing a titration of the fluorophore (1 μM, 1:2, 8-points; final concentration range of 7.8 nM to 1 μM) in a 10 μL assay volume. Solutions were placed in standard capillaries and evaluated for the fluorescent signal using the Monolith NT.115 instrument. […] CIB1-(His)6 protein was titrated in a 2-fold dilution series (16-points, final concentration range of 15 nM to 500 μM), at a final volume of 12.5 μL. An equal volume of [2×] […] Solutions were placed in standard capillaries, incubated for approximately 1 h, and evaluated for a fluorescent signal with 50% LED excitation power, 20, 40, or 60% MST power (low, medium, high, respectively), MST on-time of 30 s, and off-time of 5 s.
Compounds were titrated in a 2-fold dilution series (16 points, final concentration range of 6.1 nM to 200 μM) and mixed with an equal volume CIB1-(His)6 protein and F-αIIb peptide (final concentrations of 4 μM and 200 nM, respectively). Solutions were incubated for 1 h at RT, then placed in standard capillaries, and evaluated for fluorescent signal (in triplicate) at the following parameters: 50% LED excitation power, 40% MST power, MST on-time of 30 s, and off-time of 5 s using Monolith NT.115 instrument. Dissociation constant (Kd) values were calculated by fitting the thermophoresis signal at 20 s of the thermograph using the MO Affinity Analysis software (Nanotemper Technologies, Munich, Germany) and confirmed using Graphpad Prism 7.

[4] = In vitro ADME: PAMPA permeability
[5] = In vitro ADME: RLM stability; conditions: rat liver microsomes; read-out: Rat Liver Microsome Stability (t1/2)

COc1ccccc1C(=O)c1no[n+]([O-])c1C(=O)c1ccccc1OC.O=C(O)C(F)(F)F [NCGC00351170-01]
COUNTERSCREEN Efficacy (%) [1]: -14%
COUNTERSCREEN Confirm? ([1]; YES/NO call): YES
COUNTERSCREEN Curve Class ([1]; qHTS curve class): 4
Active in Gel Assay? [2]: YES
EC50 [3]: 2.1 µM
Papp [4]: 102 ×10⁻⁶ cm/s
half-life [5]: 1.52 min
